Results taken from patent publication US20030225001A1, “Preparation of an auricularia auricula polysaccharide and its use in mammals” (priority 2002, published 2003).

System: serum lipids (TC, TG, HDL, TC/HDL ratio) in humans
Assay: Multicenter double-blind random trial: effect of AP on serum total cholesterol and triglycerides in humans
Assay type: in vivo, human
From the text: A multicenter study, based on the Fujian Traditional Chinese Medicine Research Institute protocol, involved 476 patients between November 1994 and August 1996.
The total patient population was approximately 61% male, with the AP group being approximately 60% male and the control group approximately 64% male. Patients in each group were […] and averaged approximately 54-55 years of age. 164 patients had total cholesterol (TC) levels of 6.5-8.0 mmol/L, and 275 patients had triglycerides (TG) levels of 1.6-3.0 mmol/L. 131 patients had low high density lipoprotein (HDL) (<1.04 mmole/L for male, HDL<1.17 mmol/L for female). 201 patients had raised TC/HDL ratios (>5).
Patients with liver, renal and thyroid disease, as well as pregnant women and those who were on medications that could affect serum lipid readings, were excluded. Also excluded were patients who within the last year had had acute myocardial infarction, cerebral vascular diseases, major trauma and/or major surgery, as well as those with severe coronary or renal failure.
All medications were taken 2 times daily for 8 weeks. Although medications were administered by capsules, it should be understood that medications could be administered by tablets, liquids and/or pills as well.

## CC(C)OC(=O)C(C)(C)Oc1ccc(C(=O)c2ccc(Cl)cc2)cc1 [FF, Fenofibrate]
HDL, start vs end of 8 weeks
  Range of decreases (HDL level): 0.18 ± 0.15 mmol/L
After 8 weeks, AP 3 x 200 mg capsules or FF 100 mg tablet, 2 times daily
  End HDL: 1.06 ± 0.27 mmol/L
baseline, patients with low HDL
  Start HDL: 0.88 ± 0.27 mmol/L
Total cholesterol after 8 weeks, AP 3 x 200 mg capsules or FF 100 mg tablet, 2 times daily
  End TC: 6.46 ± 1.33 mmol/L
Total cholesterol, baseline, patients with raised TC
  Start TC: 7.81 ± 1.38 mmol/L
Triglyceride table, after 8 weeks, AP 3 x 200 mg capsules or FF 100 mg tablet, 2 times daily
  End TC (table: Effect of AP on triglyceride (TG) level): 1.96 ± 1.10 mmol/L
Triglyceride table, baseline, patients with raised TG
  Start TC (table: Effect of AP on triglyceride (TG) level): 2.94 ± 1.38 mmol/L
